Several values for one entry are separate records, joined by “and”; a condition that tells them apart may be missing. Equal values may be shown once.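 Results reflect a 48-hour exposure of cells in 96-well plates to compound at five concentrations. GI50 = concentration required for 50% inhibition of growth. TGI: total growth inhibition.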
Legend:
Experiment in all cases: NCI anticancer screen, dose series, 48 h
MOLT-4 leukemia = system: MOLT-4 leukemia
A549 NSCLC = system: A549 NSCLC
SR leukemia = system: SR leukemia
UACC-257 melanoma = system: UACC-257 melanoma
SNB-19 CNS = system: SNB-19 CNS
786-0 renal = system: 786-0 renal
HCT-15 colon = system: HCT-15 colon
OVCAR-5 ovarian = system: OVCAR-5 ovarian
IGROV1 ovarian = system: IGROV1 ovarian
NCI-H460 lung = system: NCI-H460 lung

## Cn1cc(-c2nc(-c3c[nH]c4ncccc34)cs2)c2ccccc21
MOLT-4 leukemia
  GI50: 23 µM
  TGI: > 100 µM
A549 NSCLC
  GI50: 26.6 µM
  TGI: > 100 µM
SR leukemia
  GI50: 3.72 µM
  TGI: > 100 µM
UACC-257 melanoma
  GI50: 66.3 µM
  TGI: > 100 µM
SNB-19 CNS
  GI50: 71.4 µM
  TGI: > 100 µM
786-0 renal
  GI50: 91.7 µM
  TGI: > 100 µM
HCT-15 colon
  GI50: 1.47 µM
  TGI: > 100 µM
OVCAR-5 ovarian
  GI50: 0.762 µM
  TGI: 73.9 µM
IGROV1 ovarian
  GI50: 6.66 µM
  TGI: > 100 µM
NCI-H460 lung
  GI50: 1.27 µM
  TGI: > 100 µM

## O=Nc1c(-c2c(O)[nH]c3cc(Br)ccc23)[nH]c2ccccc12
MOLT-4 leukemia
  GI50: 2.99 µM
  TGI: > 100 µM
A549 NSCLC
  GI50: 1.06 µM
  TGI: 4.89 µM
SR leukemia
  GI50: 3.26 µM
  TGI: 64.2 µM
UACC-257 melanoma
  GI50: 2.05 µM
  TGI: 3.95 µM
SNB-19 CNS
  GI50: 5.07 µM
  TGI: 16.7 µM
786-0 renal
  GI50: 1.22 µM
  TGI: 4.4 µM
HCT-15 colon
  GI50: 0.963 µM
  TGI: 3.1 µM
OVCAR-5 ovarian
  GI50: 2.25 µM
  TGI: 4.35 µM
IGROV1 ovarian
  GI50: 0.14 µM
  TGI: 2.1 µM
NCI-H460 lung
  GI50: 1.29 µM
  TGI: 7.57 µM

## O=c1cnnc(N/N=C/c2ccccc2O)[nH]1
MOLT-4 leukemia
  GI50: 0.973 µM
  TGI: > 100 µM
A549 NSCLC
  GI50: 1.55 µM
  TGI: > 100 µM
SR leukemia
  GI50: 1.51 µM
  TGI: > 100 µM
UACC-257 melanoma
  GI50: 0.489 µM
  TGI: 6.8 µM
SNB-19 CNS
  GI50: 6.41 µM
  TGI: > 100 µM
786-0 renal
  GI50: 5.1 µM
  TGI: > 100 µM
HCT-15 colon
  GI50: 0.539 µM
  TGI: > 100 µM
OVCAR-5 ovarian
  GI50: 1.22 µM
  TGI: > 100 µM
IGROV1 ovarian
  GI50: 3.2 µM
  TGI: 16.7 µM
NCI-H460 lung
  GI50: 1.56 µM
  TGI: > 100 µM

## CC(C)(C)c1cc(NC(=O)Nc2ccc(-c3cn4c(n3)sc3cc(OCCN5CCOCC5)ccc34)cc2)no1
MOLT-4 leukemia
  TGI: > 100 µM and 23.6 µM and > 10 µM
A549 NSCLC
  GI50: 3.93 µM and 1.48 µM and 6.89 µM
  TGI: 19.5 µM and 13.8 µM and > 10 µM
SR leukemia
  TGI: > 47.9 µM and 11.2 µM and > 10 µM
UACC-257 melanoma
  GI50: 9.01 µM and 3.43 µM and > 10 µM
  TGI: 23.5 µM and 16 µM and > 10 µM
SNB-19 CNS
  GI50: 3.46 µM and 1.71 µM and 4.26 µM
  TGI: 20.3 µM and 17.1 µM and > 10 µM
786-0 renal
  GI50: 2.85 µM and 0.616 µM and 4.06 µM
  TGI: 15.8 µM and 3.29 µM and > 10 µM
HCT-15 colon
  TGI: > 91.9 µM and 14.8 µM and > 10 µM
OVCAR-5 ovarian
  GI50: 21.7 µM and 9.53 µM and > 10 µM
  TGI: 86.9 µM and 22.7 µM and > 10 µM
IGROV1 ovarian
  GI50: 9.38 µM and 2.33 µM and > 10 µM
  TGI: 25.7 µM and 15.7 µM and > 10 µM
NCI-H460 lung
  GI50: 3.72 µM and 0.657 µM and 4.56 µM
  TGI: 16.1 µM and 10.4 µM and > 10 µM

## CCC1C(C(=O)Nc2ccccc2C)=C(C)NC(C)=C1c1ccccc1C (stereo unspecified)
MOLT-4 leukemia
  TGI: > 100 µM
A549 NSCLC
  TGI: > 100 µM
SR leukemia
  TGI: > 76.7 µM
UACC-257 melanoma
  TGI: > 100 µM
SNB-19 CNS
  TGI: > 100 µM
786-0 renal
  TGI: > 100 µM
HCT-15 colon
  TGI: > 54.8 µM
OVCAR-5 ovarian
  TGI: > 100 µM
IGROV1 ovarian
  TGI: > 100 µM
NCI-H460 lung
  TGI: > 67.1 µM

## O=C(c1ccc(C(F)(F)F)c(Cl)c1)N(Cc1ccc(Cl)cc1)c1ccc(-c2cc(C(F)(F)F)[nH]n2)c(O)c1
MOLT-4 leukemia
  GI50: 1.32 µM
  TGI: 5.09 µM
A549 NSCLC
  GI50: 1.35 µM
  TGI: 5.11 µM
SR leukemia
  GI50: 0.983 µM
  TGI: 2.87 µM
UACC-257 melanoma
  GI50: 1.04 µM
  TGI: 3.57 µM
SNB-19 CNS
  GI50: 1.61 µM
  TGI: 6.35 µM
786-0 renal
  GI50: 0.895 µM
  TGI: 1.7 µM
HCT-15 colon
  GI50: 0.777 µM
  TGI: 1.97 µM
OVCAR-5 ovarian
  GI50: 1.07 µM
  TGI: 4.26 µM
IGROV1 ovarian
  GI50: 0.887 µM
  TGI: 2.13 µM
NCI-H460 lung
  GI50: 1.16 µM
  TGI: 3.12 µM

## CCN(CC)CC(C)C(=O)/C=C/c1ccc(C)cc1 (stereo unspecified)
MOLT-4 leukemia
  TGI: 7.07 µM
A549 NSCLC
  TGI: 13.4 µM
SR leukemia
  TGI: 8.19 µM
UACC-257 melanoma
  TGI: 4.1 µM
SNB-19 CNS
  TGI: 30.5 µM
786-0 renal
  TGI: 3.65 µM
HCT-15 colon
  TGI: 5.71 µM
OVCAR-5 ovarian
  TGI: 28 µM
IGROV1 ovarian
  TGI: 4.86 µM
NCI-H460 lung
  TGI: 17 µM

## COc1cc2oc(-c3ccccc3)cc(=O)c2c(O)c1C
MOLT-4 leukemia
  TGI: > 100 µM
A549 NSCLC
  TGI: > 100 µM
SR leukemia
  TGI: > 100 µM
UACC-257 melanoma
  TGI: > 100 µM
786-0 renal
  TGI: > 100 µM
HCT-15 colon
  TGI: > 100 µM
OVCAR-5 ovarian
  TGI: > 100 µM
IGROV1 ovarian
  TGI: > 100 µM
NCI-H460 lung
  TGI: > 100 µM

## O=C(/C=C/c1ccccc1O)c1ccc([N+](=O)[O-])cc1
MOLT-4 leukemia
  TGI: 76.6 µM
A549 NSCLC
  TGI: 48.9 µM
SR leukemia
  TGI: 63.6 µM
UACC-257 melanoma
  TGI: > 100 µM
SNB-19 CNS
  TGI: 35.8 µM
786-0 renal
  TGI: 32.6 µM
HCT-15 colon
  TGI: 46.8 µM
OVCAR-5 ovarian
  TGI: 41.1 µM
IGROV1 ovarian
  TGI: 26.3 µM
NCI-H460 lung
  TGI: 50.5 µM

## COc1ccc2c3c1OC1C(OC)(OC)C=C[C@@]4(Br)[C@@H](C2)N(CC2CC2)CC[C@]314 (stereo partly specified)
MOLT-4 leukemia
  TGI: > 100 µM
A549 NSCLC
  TGI: > 100 µM
SR leukemia
  TGI: > 100 µM
UACC-257 melanoma
  TGI: > 100 µM
SNB-19 CNS
  TGI: > 100 µM
786-0 renal
  TGI: > 100 µM
HCT-15 colon
  TGI: > 100 µM
OVCAR-5 ovarian
  TGI: > 100 µM
IGROV1 ovarian
  TGI: > 100 µM
NCI-H460 lung
  TGI: > 100 µM

## CSc1nc2nn(Cc3ccccc3)cc2c(=O)[nH]1
MOLT-4 leukemia
  TGI: > 100 µM
A549 NSCLC
  TGI: > 100 µM
SR leukemia
  TGI: > 100 µM
UACC-257 melanoma
  TGI: > 100 µM
SNB-19 CNS
  TGI: > 100 µM
786-0 renal
  TGI: > 100 µM
HCT-15 colon
  TGI: > 100 µM
OVCAR-5 ovarian
  TGI: > 100 µM
IGROV1 ovarian
  TGI: > 100 µM
NCI-H460 lung
  TGI: > 100 µM

## COC1=C(C)C(=O)c2c(c(CCCl)c3n2CCC3OC(C)=O)C1=O (stereo unspecified)
MOLT-4 leukemia
  GI50: 4.11 µM
  TGI: > 100 µM
A549 NSCLC
  GI50: 0.165 µM
  TGI: 0.913 µM
SR leukemia
  GI50: 0.155 µM
  TGI: > 32.5 µM
UACC-257 melanoma
  GI50: 0.227 µM
  TGI: 0.733 µM
SNB-19 CNS
  GI50: 0.272 µM
  TGI: 18.2 µM
786-0 renal
  GI50: 0.287 µM
  TGI: 1.24 µM
HCT-15 colon
  GI50: 0.155 µM
  TGI: 2.35 µM
OVCAR-5 ovarian
  GI50: 0.325 µM
  TGI: 9.32 µM
IGROV1 ovarian
  GI50: 1.65 µM
  TGI: 10.1 µM
NCI-H460 lung
  GI50: 0.0389 µM
  TGI: 1.29 µM

## COc1ccc(CCN(CC(=O)N(CC(N)=O)C2CCC[C@@H]2OCc2ccccc2)C(=O)CN(C(=O)CN(CCc2ccc(Cl)cc2)C(=O)CN(C(=O)CN(C)Cc2ccccc2F)[C@H](C)C2CCCCC2)[C@H](C)C2CCCCC2)cc1OC (stereo partly specified)
MOLT-4 leukemia
  GI50: 0.689 µM
  TGI: 2.46 µM
A549 NSCLC
  GI50: 1.59 µM
  TGI: > 50 µM
SR leukemia
  GI50: 0.69 µM
  TGI: 2.23 µM
UACC-257 melanoma
  GI50: 1.09 µM
  TGI: 2.68 µM
SNB-19 CNS
  GI50: 1.64 µM
  TGI: > 50 µM
786-0 renal
  GI50: 2.14 µM
  TGI: > 50 µM
HCT-15 colon
  GI50: 2.77 µM
  TGI: > 50 µM
OVCAR-5 ovarian
  GI50: 2.24 µM
  TGI: > 50 µM
IGROV1 ovarian
  GI50: 1.68 µM
  TGI: > 50 µM
NCI-H460 lung
  GI50: 1.94 µM
  TGI: > 50 µM

## CCCCCCn1c(SC)nc(COC(=O)NC)c1COC(=O)NC
MOLT-4 leukemia
  TGI: 53.8 µM
A549 NSCLC
  TGI: 31.5 µM
SR leukemia
  TGI: 71.7 µM
UACC-257 melanoma
  TGI: 37.8 µM
SNB-19 CNS
  TGI: 29.8 µM
786-0 renal
  TGI: 30.3 µM
HCT-15 colon
  TGI: > 100 µM
OVCAR-5 ovarian
  TGI: 34.6 µM
IGROV1 ovarian
  TGI: 30.5 µM
NCI-H460 lung
  TGI: 37.3 µM

## CN(C)CC(=O)Nc1ccc2ncnc(Nc3ccc(Oc4cccc(C(F)(F)F)c4)c(Cl)c3)c2c1
MOLT-4 leukemia
  GI50: 2.14 µM
  TGI: 6.36 µM
A549 NSCLC
  GI50: 2.82 µM
  TGI: 10.2 µM
SR leukemia
  GI50: 2.46 µM
  TGI: 9.15 µM
UACC-257 melanoma
  GI50: 2.05 µM
  TGI: 4.25 µM
SNB-19 CNS
  GI50: 3.34 µM
  TGI: 14.4 µM
786-0 renal
  GI50: 1.55 µM
  TGI: 2.91 µM
HCT-15 colon
  GI50: 1.48 µM
  TGI: 3.1 µM
OVCAR-5 ovarian
  GI50: 3.04 µM
  TGI: 12.9 µM
IGROV1 ovarian
  GI50: 1.17 µM
  TGI: 3.03 µM
NCI-H460 lung
  GI50: 1.76 µM
  TGI: 3.45 µM

From PubChem BioAssay (NCI)
